Assay results from paper PMC12030253, “New Temporin A Analogues Modified in Positions 1 and 10—Synthesis and Biological Studies” (Pharmaceutics, 2025).
≈ marks a conversion by molar mass, not a printed value. Where “and” joins values, the source holds several entries; their conditions need not be identical. Equal entries are not always repeated. Where two headings read alike, the source gives them in different places. Square brackets hold non-standard residues; d marks the D form. Ends that are not written are not given here. Peptide text beside a SMILES is read from it. Phe(4-F) = N[C@@H](Cc1ccc(F)cc1)C(=O)O

Assays:
[1] = system: MDA-MB-231 cells; assay type: cell-based, human; conditions: 72 h
Procedure: (§1) Mouse embryonic fibroblasts (BALB 3T3 clone A31), human breast epithelial cells (MCF-12F), luminal A breast cancer (MCF-7), and basal B-type breast cancer (MDA-MB-231) were used in in vitro experiments. Cell cultures were purchased from the American Type Cultures Collection (ATCC, Manassas, VA, USA). Cells were cultured in a growth medium (DMEM-4.5 g/L glucose), 10% FBS, and antibiotics (Sigma-Aldrich, Schnelldorf, Germany). Cells were incubated at 5% CO2, 37 °C, and 95% humidity. Plastic flasks (75 cm^2) were used for the cell culture (Biologix, Lenexa, KS, USA).
(§2) The antiproliferative activity of the peptide analogues was determined by an MTT assay. Normal epithelial cells (MCF-12F) and tumor cell lines (MCF-7 and MDA-MB-231) were used in the in vitro experiments. Cells were plated at 1 × 10^3 cells/100 µL/well in 96-well microplates. […] The optical density of the formazan was measured at λ = 540 nm using a microplate reader. Antiproliferative activities were expressed as IC50 values. The statistical analysis of the results was performed using one-way ANOVA, followed by Bonferroni’s post hoc test.

[2] = system: MCF-7 cells; assay type: cell-based, human; conditions: 72 h
Procedure: as §1, §2

[3] = system: Arthrobacter oxydans NBIMCC 9333; assay type: cell-based; conditions: 24 h
Procedure: (§3) In order to evaluate the antimicrobial activity, the parent peptide Temporin A and newly synthesized analogues were tested against model strains Escherichia coli NBIMCC 8785, Pseudomonas aeruginosa NBIMCC 3700, Bacillus subtilis NBIMCC 3562, Arthrobacter oxydans NBIMCC 9333, and Candida albicans NBIMCC 74. The strains were purchased from the National Bank for Industrial Microorganisms and Cell Cultures (NBIMCC, Sofia, Bulgaria). They were cultured as follows: • E. coli 8785 in Luria–Bertani (LB, HiMedia, Mumbai, India) agar medium; • B. subtilis 3562 in nutrient broth (NB, HiMedia, Mumbai, India) agar medium; • P. aeruginosa 3700 and A. oxydans 9333 in Meat Peptone agar (MPA) medium; • C. albicans 74 in Yeast Mold (YM) agar medium.
(§4) The cultivation was performed in an incubator shaker ES-20/60 (Biosan, Riga, Latvia), set for B. subtilis 3562, A. oxydans 9333, and C. albicans 74 at 30 °C, and for E. coli 8785 and P. aeruginosa 3700 at 37 °C, for 24 h with 120 rpm. The microbial cultures were then brought to a 0.5 McFarland turbidity using a Grant-bio DEN-1B densitometer (Grant Instruments, Nether Alderley, United Kingdom).
(§5) The broth dilution method was employed to estimate the MIC of the peptides. In total, 10 mg/mL peptide stock solutions in 10% EtOH/H2O were prepared. Microbial culture in the corresponding media and peptide solutions in a concentration range from 0 to 320 µg/mL (concentration levels: 0, 10, 20, 40, 80, 160, and 320 µg/mL) were placed in 96-well U-shaped-bottom polystyrene plates (Deltalab S.L., Barcelona, Spain). In addition, 10% EtOH/H2O control, diluted in the nutrient medium, was added in separate wells. Furthermore, the microplates were incubated under aerobic conditions at the desired temperature for 24 h. […] The absorbance was measured at 630 nm (microplate reader PKL PPC 142, Italy). In total, 10 μL solution with concentrations greater than or equal to the MIC value was placed on the corresponding solid nutrient medium in order to evaluate a potential minimum bactericidal concentration (MBC) and minimal fungicidal concentration (MFC). Furthermore, the Petri dishes were incubated for 24 h at either 30 or 37 °C. Every experiment was carried out three times.

[4] = system: Bacillus subtilis NBIMCC 3562; assay type: cell-based
Procedure: as §3, §4, §5

[5] = system: Pseudomonas aeruginosa NBIMCC 3700; assay type: cell-based
Procedure: as §3, §4, §5

[6] = system: Candida albicans NBIMCC 74; assay: Broth dilution MIC, C. albicans; assay type: cell-based; set-up: key: NI—no inhibition observed; conditions: 0-320 µg/mL, 24 h
Procedure: as §3, §4
(§6) The broth dilution method was employed to estimate the MIC of the peptides. In total, 10 mg/mL peptide stock solutions in 10% EtOH/H2O were prepared. […] The absorbance was measured at 630 nm (microplate reader PKL PPC 142, Italy). […]

[7] = in vitro; assay type: cell-based, Mouse; conditions: mouse
Procedure: as §1
(§7) The safety testing was performed according to the OECD Guidelines for the Testing of Chemicals, Section 4, Test No. 432. Mouse embryonic fibroblasts (BALB 3T3, clone A31) were used to perform the in vitro cytotoxicity and phototoxicity tests. Cells were plated at 1 × 10^4 cells per well in 96-well cell culture plates. The cells were incubated in a thermostat for 24 h before the test peptide analogues were added. […] Working concentrations (4–1000 µM) of peptides were obtained by diluting the stock solution with a culture medium. The phototoxicity test was performed using 96-well microplates. The microplates were irradiated with a dose of 2.4 J/cm^2 using a solar light simulator Helios-iO (SERIC Ltd., Tokyo, Japan). After treatment with a neutral red (NR) medium (NR dissolved in culture medium, 34 µg/mL), washing, and application of the NR Desorb solution (freshly prepared 49 parts water + 50 parts ethanol + 1 part acetic acid), the absorption was measured on a microplate reader at a wavelength of 540 nm. Cytotoxicity was expressed as CC50 values.

[8] = system: Escherichia coli NBIMCC 8785; assay: Broth dilution MIC, E. coli; assay type: cell-based; set-up: key: NI—no inhibition observed; conditions: 0-320 µg/mL, 24 h
Procedure: as §3, §4, §6

[9] = system: MCF-12F cells; assay type: cell-based, human; conditions: for IC50: 72 h
Procedure: as §1
The antiproliferative activity of the peptide analogues was determined by an MTT assay. Normal epithelial cells (MCF-12F) and tumor cell lines (MCF-7 and MDA-MB-231) were used in the in vitro experiments. Cells were plated at 1 × 10^3 cells/100 µL/well in 96-well microplates. After 24 h of incubation in a thermostat under standard conditions, the cells were treated with test compounds for 72 h. The optical density of the formazan was measured at λ = 540 nm using a microplate reader. Antiproliferative activities were expressed as IC50 values. The statistical analysis of the results was performed using one-way ANOVA, followed by Bonferroni’s post hoc test.

[10] = system: Bacillus subtilis NBIMCC 3562; set-up: method as in PMID 38931840; conditions: 30 µg/disk, positive control with DTA; cited from earlier work
[11] = system: Bacillus subtilis NBIMCC 3562; assay type: cell-based; conditions: 30 µg/disk, positive control on the plate of the peptide
Procedure: as §3, §4
(§8) The disk diffusion method was employed as an additional technique in order to determine the percentage of inhibition of the synthesized peptides compared to a chosen antibiotic, used as a positive control. The antibiotics used were gentamicin (10 µg/disk), chloramphenicol (30 µg/disk), and itraconazole (10 µg/disk). In total, 100 μL from each microbial culture was spread on LB/NB/MPA/YM agar plates. The plates were then incubated at the appropriate temperature for a period of 30 min intended for the penetration of the culture into the agar. […] The antimicrobial activity was assessed by measuring the diameter of the inhibition zones in mm. […] In addition, the percentage of inhibition was calculated as the correlation between the inhibition zone of the peptide (measured in mm) over the inhibition zone of the antibiotic (measured in mm) multiplied by 100.

[12] = system: BALB 3T3 cells; assay: in vitro; assay type: cell-based, Mouse
Procedure: as §1, §7

[13] = system: Arthrobacter oxydans NBIMCC 9333; set-up: method as in PMID 38931840; conditions: 10 µg/disk, positive control with DTA; cited from earlier work
[14] = system: Pseudomonas aeruginosa NBIMCC 3700; assay type: cell-based; conditions: 10 µg/disk, positive control on the plate of the peptide
Procedure: as §3, §4, §8

[15] = system: Escherichia coli NBIMCC 8785; assay type: cell-based; conditions: 10 µg/disk, positive control on the plate of the peptide
Procedure: as §3, §4, §8

[16] = system: Escherichia coli NBIMCC 8785; set-up: method as in PMID 38931840; conditions: 10 µg/disk, positive control with DTA; cited from earlier work
[17] = system: Pseudomonas aeruginosa NBIMCC 3700; set-up: method as in PMID 38931840; conditions: 10 µg/disk, positive control with DTA; cited from earlier work
[18] = broth dilution, 0-320 µg/mL, 24 h

Molecule | IC50 [1] [µM] | IC50 [2] [µM] | MIC C. albicans 74 [6] | CC50 ([7]; Mean CC50 ± SD +Irr) [µM] | CC50 ([7]; Mean CC50 ± SD −Irr) [µM] | MIC E. coli 8785 [8] | IC50 [9] [µM] | MIC A. oxydans 9333 [3] [µg/mL] | MIC B. subtilis 3562 ([4]; NBIMCC 3562, 24 h) [µg/mL] | MIC P. aeruginosa 3700 ([5]; NBIMCC 3700, 24 h) [µg/mL] | PIF (Photo-Irritation Factor) [12] | further results
FLPLIGRVLYGIL-NH2 [DTTyr10, FLPLIGRVL-Y-GILNH2] | 328.5 ± 2.62 | 64.5 ± 3.93 | NI ** | > 1000 | > 1000 | NI ** | 251 ± 11.8 |  |  |  |  | MIC A. oxydans 9333 ([3]; broth dilution, 0-320 µg/mL): 320 µg/mL; MIC B. subtilis 3562 [4, 18]: 320 µg/mL; MIC P. aeruginosa 3700 [5, 18]: 320 µg/mL; Antiproliferative activity in MCF-12F at a single concentration ([9]; at 64.51 µM, non-tumorigenic cells): no antiproliferative activity was observed
O=C(N[C@H](CO)[C@H](O)c1ccc([N+](=O)[O-])cc1)C(Cl)Cl [Chloramphenicol, chloramphenicol] |  |  |  |  |  |  |  |  |  |  |  | Inhibition zone B. subtilis 3562, antibiotic control [10]: 26 mm; Inhibition zone B. subtilis 3562, antibiotic control [11]: 24 mm and 27 mm and 28 mm
CC[C@H](C)[C@H](NC(=O)CNC(=O)[C@H](CO)NC(=O)[C@H](CC(C)C)NC(=O)[C@@H](NC(=O)[C@H](CCCNC(=N)N)NC(=O)CNC(=O)[C@@H](NC(=O)[C@H](CC(C)C)NC(=O)[C@@H]1CCCN1C(=O)[C@H](CC(C)C)NC(=O)[C@@H](N)Cc1ccc(F)cc1)[C@@H](C)CC)C(C)C)C(=O)N[C@@H](CC(C)C)C(N)=O [DT4F, Phe(4F)-LPLIGRVLSGILNH2] (H-[Phe(4-F)]LPLIGRVLSGIL-NH2) | 32 ± 1.43 | 20.3 ± 0.6 |  | 40 ± 0.78 | 55.4 ± 4.64 |  | 41.8 ± 1.64 | 160 (≈ 113 µM) | 80 (≈ 56.5 µM) | 80 (≈ 56.5 µM) | 1.4 | 
YLPLIGRVLSGIL-NH2 [DTTyr1, Y-LPLIGRVLSGILNH2] | 334 ± 3.72 | 216 ± 10.3 | NI ** | 671 ± 12.2 | 669 ± 13.4 | NI ** | 318 ± 9.79 | 320 | 160 | 320 | 1.0 | 
CNC(C)C1CCC(N)C(OC2C(N)CC(N)C(OC3OCC(C)(O)C(NC)C3O)C2O)O1 (centres unmarked) [Gentamicin, gentamicin] |  |  |  |  |  |  |  |  |  |  |  | Inhibition zone A. oxydans 9333, antibiotic control [13]: 18 mm; Inhibition zone P. aeruginosa 3700, antibiotic control [14]: 17 mm and 18 mm and 16 mm; Inhibition zone E. coli 8785, antibiotic control [15]: 17.5 mm and 16.5 mm and 17 mm; Inhibition zone E. coli 8785, antibiotic control [16]: 18 mm; Inhibition zone P. aeruginosa 3700, antibiotic control [17]: 17 mm
FLPLIGRVLTGIL-NH2 [DTThr, FLPLIGRVL-T-GILNH2] | 136 ± 3.61 | 98.6 ± 1.19 |  | 188 ± 3.55 | 183 ± 2.91 |  | 165 ± 2.21 | 320 | 160 | 320 | 1.0 | 
